Results on one molecule are retold here after patent US11833238B2, “Topical testosterone (T) for promoting hair growth-containing formulations” (priority 2012, dated 2023).

One series has as its system eyelash hair growth. The experiment in a line: appearance of lashes and hair around the eyes of glaucoma patients administering bimatoprost in only one eye (slit lamp biomicroscope). The conditions noted are these: 0.03% ophthalmic solution, more than 3 months, treated vs control eye. The class given is in vivo, human. On the procedure:
A study is initiated to systematically evaluate the appearance of lashes and hair around the eyes of patients who are administering bimatoprost in only one eye. The study involves 10 subjects, 5 male, 5 female, average age 70 years, (ranging from 50-94 years). All patients have glaucoma. Each subject is treated daily by the topical application of one drop of bimatoprost at a dosage of 1.5 µg/ml/eye/day (0.03%, by weight, ophthalmic solution, sold under the names Lumigan® and Latisse® by Allergan, Irvine, Calif., U.S.A.) to the region of one eye by instilling the drop onto the surface of the eye. The region of the fellow control eye is not treated with bimatoprost and served as a control.
In the course of treatment with eye drops, there is typically spontaneous tearing, and excess fluid from the drops and associated tears gathers at the lid margins. In the course of wiping the drug containing fluid from the lid margins and adjacent lid, a thin film of the fluid is routinely spread to contact the adjacent skin of the lid area.
The study is limited to subjects who have administered bimatoprost to one eye for more than 3 months. The mean duration of exposure to bimatoprost prior to assessing the parameter of lash growth between the control and study eye is 129 days (range 90-254 days). Observations are made under high magnification at the slit lamp biomicroscope. Documentation of differences between the control and treatment areas is accomplished using a camera specially adapted for use with the slit lamp biomicroscope. The results of the observations are as follows: Length of lashes: Increased length of eyelashes is regularly observed on the side treated with bimatoprost. The difference in length varies from approximately 10% to as much as 30%. […] In areas where there are a large number of lashes in the control eye, the increased number of lashes in the bimatoprost-treated eye gave the lashes on the treated side a more thickly matted overall appearance. […] These long, thick lash-like hairs were present in the central portion of the lids of several patients in a linear arrangement just above the lash line. Hairs are present at similar locations in the control eyes but are by contrast thinner or more fine in appearance, have less luster and pigment and are more flat against the skin of the lid typical of vellus or intermediate hairs. In several patients, lash-like terminal hairs grow luxuriantly in the medial canthal area in the treated eye. In the corresponding control eye, vellus hairs are seen at the same location. Lash-like hairs are also present in the lateral canthal area of the treated eye but not the control eye in several subjects. […]

The conditions of series [1]: powder; cited from earlier work.

Regarding `CCNC(=O)CCC/C=C\C[C@@H]1[C@@H](/C=C/[C@@H](O)CCc2ccccc2)[C@H](O)C[C@@H]1O` [bimatoprost, (Z)-7-[(1R,2R,3R,5S)-3,5Dihydroxy-2-[(1E,3S)-3-hydroxy-5-phenyl-1-pentenyl]cyclopentyl]-5-N-ethylheptenamide], in the series with eyelash hair growth, the “Auxiliary lash-like hair growth” value is reported as “apparent increase in lash-like hair in transitional areas adjacent to areas of normal lash distribution”; the Number of lashes result is recorded as “Increased numbers of lashes are observed in the treated eye of each patient”; the “Perpendicular angulation of hairs” value is reported as “leave the surface of the skin at a more acute angle”; the “growth of vellus hair on lids” value is “vellus hairs are increased in number, appear more robust and are much longer and thicker in treated than in control eyes”. Further, in series [1], the “solubility in ethyl alcohol” value is given as “very soluble”, the “solubility in methyl alcohol” value is on record as “very soluble” and the solubility in water entry is on record as “slightly soluble”.
